Experimental findings from ChEMBL document CHEMBL5537161, “Structure-Guided Design, Synthesis, and Antivirulence Assessment of Covalent Staphylococcus aureus Sortase A Inhibitors” (J Med Chem, 2024) are described below.

Structures are written as SMILES. Values after ≈ are worked out from the molar mass of the structure shown. A value given as a limit tells only on which side of the number the result lay.

In experiment [1] the test system is Staphylococcus aureus. The experiment can be described thus: Bactericidal activity against Staphylococcus aureus Newman assessed as reduction in bacterial growth incubated for 16 to 18 hrs. As to conditions: time 16-18 hrs. It is filed as functional.
Experiment [2] deals with T1, Sortase A (Staphylococcus aureus, UniProt Q9S446, N24DEL). The experiment can be described thus: Inhibition of Staphylococcus aureus sortase A N24 deletion mutant using Abz-LPATG-Dnp as substrate preincubated for 20 mins followed by substrate addition by FRET assay.
For experiment [3], the target named is T1, Sortase A. The experiment can be described thus: Inhibition of Staphylococcus aureus Sortase A N24 deletion mutant transpeptidation using IsdA64-323 as substrate preincubated for 20 mins followed by substrate addition and measured after 1.5 hrs by SDS-PAGE analysis.

For `O=C1NC(=O)C(=C/C=C/c2ccc(OCc3ccc(Cl)cc3)cc2)C(=O)N1`, in experiment [1], the MIC is > 128 µg/mL. Also, the IC50 in experiment [2] was determined as 2500 nM.
The corresponding values for `Cc1ccc(COc2ccc(/C=C/C=C3C(=O)NC(=O)NC3=O)cc2)cc1` are > 128 µg/mL and 1100 nM.
The corresponding values for `COc1ccc(COc2ccc(/C=C/C=C3C(=O)NC(=O)NC3=O)cc2)cc1` are > 128 µg/mL and 1600 nM.
With `COc1ncc(/C=C/C=C2C(=O)NC(=O)NC2=O)cn1`, the MIC in experiment [1] was > 128 µg/mL. In experiment [2], this molecule registered an IC50 of 7700 nM.
For the molecule `O=C1NC(=O)C(=C/C=C/c2ccc(F)cc2)C(=O)N1`, the MIC in experiment [1] was > 128 µg/mL. Moreover, the IC50 in experiment [3] was 7400 nM; in experiment [2], 1300 nM.
The corresponding values for `O=C1NC(=O)C(=C/C=C/c2ccc(Br)cc2)C(=O)N1` are 64 µg/mL (≈ 199 µM), 9000 nM and 700 nM.
`COc1cccc(/C=C/C=C2C(=O)NC(=O)NC2=O)c1`: the MIC in experiment [1] was 128 µg/mL (≈ 470 µM). In experiment [2], this molecule showed an IC50 of 2100 nM.
The corresponding values for `COC(=O)c1ccc(COc2ccc(/C=C/C=C3C(=O)NC(=O)NC3=O)cc2)cc1` are > 128 µg/mL and > 50000 nM.
The corresponding values for `CC(C)(C)c1ccc(COc2ccc(/C=C/C=C3C(=O)NC(=O)NC3=O)cc2)cc1` are 128 µg/mL (≈ 316 µM) and > 50000 nM.
The corresponding values for `CC(C)CC=C1C(=O)NC(=O)NC1=O` are > 128 µg/mL and > 50000 nM.
Regarding `CC(=O)Oc1ccc(COc2ccc(/C=C/C=C3C(=O)NC(=O)NC3=O)cc2)cc1`, in experiment [1], the MIC was > 128 µg/mL. The results for the IC50 in experiment [3] and in experiment [2] were 16100 nM and 800 nM, respectively.
The corresponding values for `O=C1NC(=O)C(=C/C=C/c2ccc(OCC(=O)c3ccc[nH]3)cc2)C(=O)N1` are > 128 µg/mL, 15300 nM and 500 nM.
Take `O=C1NC(=O)C(=Cc2ccc(-c3ccc(Br)cc3)o2)C(=O)N1`: the MIC in experiment [1] was 64 µg/mL (≈ 177 µM). For the same molecule, in experiment [2], the IC50 is > 50000 nM.
The corresponding values for `O=C1NC(=O)C(=C/C=C/c2ccc(OCc3ccc([N+](=O)[O-])cc3)cc2)C(=O)N1` are > 128 µg/mL and 1300 nM.
The corresponding values for `O=C1NC(=O)C(=CNc2ccc(Br)cc2)C(=O)N1` are > 128 µg/mL and > 50000 nM.
The corresponding values for `COc1ccc(/C=C/C=C2C(=O)N(C)C(=S)N(C)C2=O)cc1` are > 128 µg/mL and > 50000 nM.
As to `O=C1NC(=O)C(=C/C=C/c2ccc(OCc3cccnc3)cc2)C(=O)N1`, in experiment [1], the MIC is > 128 µg/mL. Further, the IC50 in experiment [2] is > 50000 nM.
The corresponding values for `CSCC[C@H](NC(=O)OCc1ccccc1)C(=O)Oc1ccc(/C=C/C=C2C(=O)NC(=O)NC2=O)cc1` are 128 µg/mL (≈ 244 µM) and 6900 nM.
The corresponding values for `O=C1NC(=O)C(=C/C=C/c2cccc(Cl)c2)C(=O)N1` are 64 µg/mL (≈ 231 µM) and 1000 nM.
The corresponding values for `NC(=O)COc1ccc(/C=C/C=C2C(=O)NC(=O)NC2=O)cc1` are > 128 µg/mL and 900 nM.
Regarding `O=C1NC(=O)C(=C/C=C/c2ccc(OCc3ccc(OCc4ccccc4)cc3)cc2)C(=O)N1`, in experiment [1], the MIC was > 128 µg/mL. Besides, in experiment [2], the IC50 is > 50000 nM.
For `COc1ccc(/C(C#N)=C/C=C2C(=O)NC(=O)NC2=O)cc1`, in experiment [1], the MIC amounted to 128 µg/mL (≈ 431 µM). Further, in experiment [2], half-maximal inhibition (IC50) required 4700 nM.
Turning to `O=C(CNC(=O)OCc1ccccc1)NCC(=O)Oc1ccc(/C=C/C=C2C(=O)NC(=O)NC2=O)cc1`, in experiment [1], the MIC worked out at 32 µg/mL (≈ 63.2 µM). This molecule also came in with an IC50 in experiment [2] of 1700 nM.
The corresponding values for `O=C1NC(=O)C(=C/C=C/c2ccc(OC(=O)CNC(=O)OCc3ccccc3)cc2)C(=O)N1` are > 128 µg/mL and 1800 nM.
The corresponding values for `O=C1NC(=O)C(=C/C=C/c2ccco2)C(=O)N1` are > 128 µg/mL and 1400 nM.
The corresponding values for `O=C1NC(=O)C(=C/C=C/c2ccc(C(F)(F)F)cc2)C(=O)N1` are 64 µg/mL (≈ 206 µM) and 1400 nM.
Take `CN(C)c1ccc(/C=C/C=C2C(=O)NC(=O)NC2=O)cc1`: the MIC in experiment [1] was > 128 µg/mL. The 50% inhibitory concentration (IC50) in experiment [2] is > 50000 nM.
The corresponding values for `COc1ccc(/C=C/C=C2C(=O)c3ccccc3C2=O)cc1` are > 128 µg/mL and > 50000 nM.
As to `CC(=O)Oc1ccc(/C=C/C=C2C(=O)NC(=O)NC2=O)cc1`, the MIC in experiment [1] was > 128 µg/mL. The molecule further had a half-inhibitory concentration (IC50) in experiment [2] of 1800 nM.
The corresponding values for `O=C1NC(=O)C(=C/C=C/c2ccc(OC(=O)[C@H](CO)NC(=O)OCc3ccccc3)cc2)C(=O)N1` are > 128 µg/mL and 2500 nM.
Turning to `CCCCc1ccc(COc2ccc(/C=C/C=C3C(=O)NC(=O)NC3=O)cc2)cc1`, the MIC in experiment [1] is > 128 µg/mL. Moreover, the IC50 in experiment [2] is > 50000 nM.
The corresponding values for `CC(C)c1ccc(/C=C/C=C2C(=O)NC(=O)NC2=O)cc1` are 32 µg/mL (≈ 113 µM) and 1800 nM.
The corresponding values for `CC(C)CCC(=O)Oc1ccc(/C=C/C=C2C(=O)NC(=O)NC2=O)cc1` are 128 µg/mL (≈ 359 µM) and 1500 nM.
The corresponding values for `N#Cc1ccc(COc2ccc(/C=C/C=C3C(=O)NC(=O)NC3=O)cc2)cc1` are > 128 µg/mL and 700 nM.
As to `O=C1NC(=O)C(=C/C=C/c2ccc(Cl)cc2)C(=O)N1`, the MIC in experiment [1] is 128 µg/mL (≈ 463 µM). The same molecule came in with an IC50 in experiment [2] of 1000 nM.
The corresponding values for `O=C1NC(=O)C(=C/C=C/c2ccc(OCc3ccc(C(F)(F)F)cc3)cc2)C(=O)N1` are > 128 µg/mL and 6500 nM.
Turning to `COc1ccc(/C=C/C=C2C(=O)NC(=O)NC2=O)cn1`, the MIC in experiment [1] was > 128 µg/mL. In experiment [2], the IC50 was 2300 nM.
In the case of `COC(=O)COc1ccc(/C=C/C=C2C(=O)NC(=O)NC2=O)cc1`, the MIC in experiment [1] is > 128 µg/mL. The molecule also gave an IC50 in experiment [2] of 1000 nM.
As for `COc1ccc(C=C2C(=O)NC(=O)NC2=O)cc1`, in experiment [1], the MIC is > 128 µg/mL. For the same molecule, the IC50 in experiment [2] was > 50000 nM.
The corresponding values for `O=C1NC(=O)C(=C/C=C/c2cc(Cl)cc(Cl)c2)C(=O)N1` are 64 µg/mL (≈ 206 µM) and 2000 nM.
The corresponding values for `O=C1NC(=O)C(=C/C=C/c2ccc(Cl)c(Cl)c2)C(=O)N1` are 32 µg/mL (≈ 103 µM) and 1000 nM.
The corresponding values for `O=C1NC(=O)C(=C/C=C/c2ccc([N+](=O)[O-])cc2)C(=O)N1` are 128 µg/mL (≈ 446 µM) and 2000 nM.
In the case of `O=C1NC(=O)C(=CNCc2ccc(Br)cc2)C(=O)N1`, in experiment [1], the MIC is > 128 µg/mL. In addition, the IC50 in experiment [2] is > 50000 nM.
Regarding `O=C1NC(=O)C(=C/C=C/c2ccc(OCc3ccsc3)cc2)C(=O)N1`, the MIC in experiment [1] was > 128 µg/mL. The same molecule gave an IC50 in experiment [2] of 700 nM.
The corresponding values for `CC(C)C[C@H](NC(=O)OCc1ccccc1)C(=O)Oc1ccc(/C=C/C=C2C(=O)NC(=O)NC2=O)cc1` are 64 µg/mL (≈ 127 µM) and 5600 nM.
The corresponding values for `O=C1NC(=O)C(=C/C=C/c2ccccc2Cl)C(=O)N1` are 128 µg/mL (≈ 463 µM) and 2100 nM.
The corresponding values for `COc1ccc(/C=C/C=C2C(=O)NC(=S)NC2=O)cc1` are > 128 µg/mL and 2800 nM.
For `Cc1ccc(/C=C/C=C2C(=O)NC(=O)NC2=O)cc1`, the MIC in experiment [1] worked out at 128 µg/mL (≈ 499 µM). Inhibition in experiment [2] was half-maximal at 1000 nM (IC50).
As to `O=C1NC(=O)C(=C/C=C/c2ccc(OCc3ccncc3)cc2)C(=O)N1`, the MIC in experiment [1] is > 128 µg/mL. In experiment [2], the IC50 is > 50000 nM.
The corresponding values for `COC(=O)c1ccc(/C=C/C=C2C(=O)NC(=O)NC2=O)cc1` are > 128 µg/mL and 2200 nM.

The MIC is the lowest concentration that inhibits growth of the organism. One may read the IC50 as the concentration that gives 50% inhibition. Read a high IC50 as a need for much substance.
